Data as given in patent publication US20080267903A1, “Bioactive Polymers” (priority 2004, published 2008).
Several values for one entry are separate records, joined by “and”; a condition that tells them apart may be missing. Equal values may be shown once.

How the values were obtained:
[1] = cited from earlier work
[2] = Systemic toxicity, tolerability and body weight after intravenous injection (FIG. 3); assay type: in vivo
Description: All formulations were prepared as solutions (or suspensions) in 5% dextrose. Each dose contained 250 μg of DAB 4, DAB 16, DAB 32, QDAB8, respectively. The PAMAM dendrimer and linear PEI were given as dilutions of Superfect (100 μl per animal) and Exgen (9 μl per animal) respectively, in 5% dextrose solution.
(§4) Animals were injected intravenously (0.2 ml per injection) with the different formulations either once or alternatively on a schedule every other day (0.5 q.d.) over 10 days (every second day, 5 injection). […] Each group consisted of 5 animals (n=5). As a control DAB 16-DNA complexes were prepared as previously described [36] by mixing dendrimer and DNA (50 μg) at a 5:1 weight ratio in a 5% dextrose solution (200 μl/animal). Free plasmid DNA (50 μg) was given in 200 μL 5% dextrose. Animals were monitored at regular intervals, the tumour size was determined using callipers, and body weight measured and recorded.

[3] = tested on: A431 epidermoid carcinoma (ATCC CRL-1555); experiment: Established A431 xenografts, repeated injection every 2nd day over 10 days, long-term follow-up (FIGS. 6-8)
Description: A431 epidermoid carcinoma tumours were grafted into nude CD-1 mice and left to establish (˜5 mm). Animals were treated by injection of the relevant formulation every 2nd day over 10 days (5 injections). […] Tumour volume doubling time was measured as a surrogate endpoint as substantial tumour growth immediately precedes tumour related mortality.
All formulations were prepared as solutions (or suspensions) in 5% dextrose.
as §4

[4] = tested on: C33a Human Cervix Carcinoma (ATCC HTB31) xenografts; experiment: Established C33a xenografts, treatment q.2d 5x (FIG. 5); assay type: in vivo, mice; settings: C33a cervix carcinomas, q.2d 5x i.v.
Description: (§1) Female mice (CD1-nu, initial mean weight 20 g) were housed in groups of five in suspended plastic cages at 19-23° C. with a 12 h light-dark cycle. A conventional diet (Rat and Mouse Standard Expanded, B and K Universal, Grimston, UK) and water from the mains were available ad libidum. Experimental work was carried out in accordance with UK Home Office regulations and approved by the local ethics committee.
(§2) Tumour cells [LS174 Human Colorectal Adenocarcinoma (ATCC CL-188), A431 Epidermoid Carcinoma (ATCC CRL-1555), C33a Human Cervix Carcinoma (ATCC HTB31)] were grown as monolayers in 75 cm^2 flasks in Dulbecco's Modified Eagle's Medium (DMEM) supplemented with 10% (v/v) foetal bovine serum (FBS) and 1% (v/v) glutamine, in a humid atmosphere of 5% CO2 at 37° C. Medium was changed twice a week. Cells were subcultured every seven days by trypsin treatment and experiments were conducted when the cells were in exponential phase. […]
(§3) Animals were injected intravenously (0.2 ml per injection) with the different formulations either once or alternatively on a schedule every other day (0.5 q.d.) over 10 days (every second day, 5 injection). […] Animals were monitored at regular intervals, the tumour size was determined using callipers, and body weight measured and recorded. Expression of genes containined on nucleic acids complexed with the various polymers was measured as described previously.

[5] = tested on: LS174T Human Colorectal Adenocarcinoma (ATCC CCL-188) xenografts; experiment: Established LS174T xenografts, treatment q.2d 5x (FIG. 4); assay type: in vivo, mice; settings: LS174T colorectal tumours, q.2d 5x i.v.
Description: as §1, §2, §3

[6] = tested on: A431 epidermoid carcinoma cells; experiment: Cytostatic effects of cationic polymers on tumour cells in vitro (FIG. 1); assay type: cell-based; settings: lysis control
Description: A431 epidermoid carcinoma cells were treated with various cationic polymers. PEI, Superfect and various DAB polymers were added to the culture medium at concentrations of 0.45 μL/mL, 5 μL/mL and 12.5 μg/mL respectively for the duration of the experiment.

**Q.** With `C[C@H](N)C(=O)O` [Alanine] as the compound, how does the “pKa of the α-NH3+ group” value [1] read?
**A.** 9.9

**Q.** Which “pKa of the α-NH3+ group” value [1] does the source give for `N[C@@H](CC(=O)O)C(=O)O` [Aspartic acid] here?
**A.** 10.0

**Q.** With `NCCCN(CCCN)CCCN(CCCCN(CCCN(CCCN)CCCN)CCCN(CCCN)CCCN)CCCN(CCCN)CCCN` [DAB8] as the compound, how does the “time to death after i.v. injection” value [2] read?
**A.** 5 to 10 s

**Q.** Which results are given for `NCCCN(CCCN)CCCN(CCCN(CCCN)CCCN)CCCN(CCCCN(CCCN(CCCN(CCCN)CCCN)CCCN(CCCN)CCCN)CCCN(CCCN(CCCN)CCCN)CCCN(CCCN)CCCN)CCCN(CCCN(CCCN)CCCN)CCCN(CCCN)CCCN` [DAB16]?
**A.** survival of the treated mice ([3]; 0.5 q.d. X5, long term experiment): long term survival; complete disappearance of tumours, 2 mice ([3]; 0.5 q.d. X5, n=5): 43 days and 51 days; start of decrease of the tumour size, 2 mice ([3]; 0.5 q.d. X5, n=5): 23 days; start of decrease of the tumour size, all the mice ([3]; 0.5 q.d. X5, n=5): 33 days; long-term tumour growth delay (tumour volume doubling time as surrogate endpoint) ([3]; 5 injections over 10 days, FIG. 7): improved long-term growth reduction; tumour growth ([3]; A431 epidermoid carcinoma model, q.2d 5x i.v.): inhibited tumour growth significantly; tumour growth [4]: inhibited tumour growth significantly; tumour growth [5]: inhibited tumour growth significantly

**Q.** For `N[C@@H](CO)C(=O)O` [Serine], which “pKa of the α-NH3+ group” value [1] is on record?
**A.** 9.1

**Q.** Which cell number [6] does the source give for triton X here?
**A.** decrease in cell number consistent with cell lysis
